Results reported in patent US11203597B2, “Crystalline spirocyclic compound, a dosage form containing, a method for using in treatment of disease, and a method for recrystallizing” (Altavant Sciences GmbH, priority 2018, dated 2021).
In brackets after ≈: the same amount, converted by molar mass. One block for each compound: values may come before it.

Assays:
Format in all cases: physicochemical
[1] = Solubility of Compound 1 in organic solvents other than MTBE/n-heptane; conditions: thermodynamic from solid
Method: Solubility and Form Measurement
The solubility of Compound 1 was evaluated in organic solvents other than MTBE/n-heptane mixtures. The form of the residual solids was examined by XRPD.

[2] = Competitive slurry of Form 1 and Form 3 in MTBE/n-heptane mixtures (XRPD)
Description: Compound 1 was also subjected to competitive slurry experiments between Compound 1, Form 1 and Compound 1, Form 3 in MTBE/n-heptane mixtures as summarized in Table 7 below.

[3] = Stability of polymorph form by pH measurement when stirred in water
Method: Additional tests were performed to understand the differences between form 1 and 3. One of those tests was to check stability of polymorph form by pH measurement at several times when the different forms were stirred in water (Table 11). During the tests, any changes in polymorph form were checked.

[4] = Competitive slurry experiments in n-heptane (XRPD); conditions: slurry in 10 volumes of n-heptane
Method: Competitive slurry experiments were performed to ascertain if Compound 1 samples of Form 1 and mixtures of Form 1 and Form 3 can be converted to Form 3. Pure Form 1 and Form 3 were also tested. First, 700 mg of Compound 1 were added in different ratios to 10 volumes of n-heptane and stirred for […] (Table 2). After 16 hours and four days, the samples were checked for polymorphic form by XRPD. […]

[5] = Solubility determination by HPLC
Description: Because of the small differences in solubilities, HPLC was used to measure the solubilities. The values were conformed to the shake-flask results. […] In alcohol, there was a difference in dissolution rate. This difference was not observed for aqueous solutions.

[6] = Shake-flask solubility determination with stepwise addition of solvent
Description: The method applied was a shake-flask solubility determination with stepwise addition of the solvent until complete dissolution is observed visually.

[7] = Thermodynamic stability of polymorphs; conditions: particularly at temperatures of less than 95° C., more particularly less than 80° C.
[8] = Solubility of Compound 1, Form 3 in MTBE/n-heptane mixtures; conditions: organic solvent or mixture, thermodynamic from solid
Method: Solubility of Compound 1, Form 3
The solubility of Compound 1 was evaluated in mixtures of MTBE/n-heptane mixtures at 10° C. and 45° C. The form of the residual solids was examined by XRPD.

Structure (SMILES): CCOC(=O)[C@@H]1CC2(CCN(c3cc(O[C@H](c4ccc(Cl)cc4-c4ccccc4)C(F)(F)F)nc(N)n3)CC2)CN1 [Compound 1, (S)-ethyl 8-(2-amino-6-((R)-1-(5-chloro-[1,1′-biphenyl]-2-yl)-2,2,2-trifluoroethoxy)pyrimidin-4-yl)-2,8-diazaspiro[4.5]decane-3-carboxylate]
solubility ([1]; EA/n-heptane 1:1, 10 °C, organic solvent or mixture): 422 mg/mL (≈ 715 mM)
solubility ([1]; EA/n-heptane 1:3, 10 °C, organic solvent or mixture): 115 mg/mL (≈ 195 mM)
solubility ([1]; EtOH/n-heptane 1:1, 10 °C, organic solvent or mixture): 396 mg/mL (≈ 671 mM)
solubility ([1]; EtOH/n-heptane 1:3, 10 °C, organic solvent or mixture): 192 mg/mL (≈ 326 mM)
solubility ([1]; IPA, 10 °C, organic solvent or mixture): 79.6 mg/mL (≈ 135 mM)
solubility ([1]; IPA, 50 °C, organic solvent or mixture): > 518 mg/mL
solubility ([1]; MTBE, 10 °C, organic solvent or mixture): > 211 mg/mL
solubility ([1]; MTBE, 50 °C, organic solvent or mixture): > 615 mg/mL
solubility ([1]; acetone/n-heptane 1:1, 10 °C, organic solvent or mixture): > 589 mg/mL
solubility ([1]; acetone/n-heptane 1:3, 10 °C, organic solvent or mixture): 208 mg/mL (≈ 353 mM)
solubility ([1]; n-butanol, 10 °C, organic solvent or mixture): 268 mg/mL (≈ 455 mM)
solubility ([1]; n-butanol, 50 °C, organic solvent or mixture): > 758 mg/mL
solubility ([1]; n-heptane, 50 °C, organic solvent or mixture): 9.5 mg/mL (≈ 16.1 mM)
solubility ([1]; water, 50 °C): 1.2 mg/mL (≈ 2.03 mM)
XRPD (1~2 hours) ([2]; MTBE/n-heptane 1/1(v/v), 45 °C): Form 3
XRPD (19 hours) ([2]; MTBE/n-heptane 1/1(v/v), 45 °C): Form 3
XRPD (1~2 hours) ([2]; MTBE/n-heptane 1/4(v/v), 10 °C): Form 1 +
XRPD (65 hours) ([2]; MTBE/n-heptane 1/4(v/v), 10 °C): Form 3
XRPD (1~2 hours) ([2]; MTBE/n-heptane 1/4(v/v), 45 °C): Form 1+
XRPD (19 hours) ([2]; MTBE/n-heptane 1/4(v/v), 45 °C): Form 3
XRPD (1~2 hours) ([2]; MTBE/n-heptane 1/5(v/v), 10 °C): Form 1 +
XRPD (65 hours) ([2]; MTBE/n-heptane 1/5(v/v), 10 °C): Form 3
XRPD (1~2 hours) ([2]; MTBE/n-heptane 1/5(v/v), 45 °C): Form +
XRPD (65 hours) ([2]; MTBE/n-heptane 1/5(v/v), 45 °C): Form 3

Structure (SMILES): CCOC(=O)[C@@H]1CC2(CCN(c3cc(O[C@H](c4ccc(Cl)cc4-c4ccccc4)C(F)(F)F)nc(N)n3)CC2)CN1 [ES928-59-1]
pH (2 hours) [3]: 8.68
pH (4 hours) [3]: 8.22
pH (7 hours) [3]: 8.05

Structure (SMILES): CCOC(=O)[C@@H]1CC2(CCN(c3cc(O[C@H](c4ccc(Cl)cc4-c4ccccc4)C(F)(F)F)nc(N)n3)CC2)CN1 [ES928-59-2]
pH (2 hours) [3]: 8.26
pH (4 hours) [3]: 7.75
pH (7 hours) [3]: 7.76

Structure (SMILES): CCOC(=O)[C@@H]1CC2(CCN(c3cc(O[C@H](c4ccc(Cl)cc4-c4ccccc4)C(F)(F)F)nc(N)n3)CC2)CN1 [ES928-59-3]
pH (2 hours) [3]: 8.71
pH (4 hours) [3]: 8.65
pH (7 hours) [3]: 8.32

Structure (SMILES): CCOC(=O)[C@@H]1CC2(CCN(c3cc(O[C@H](c4ccc(Cl)cc4-c4ccccc4)C(F)(F)F)nc(N)n3)CC2)CN1 [ES928-60-1]
XRPD 16 hours [4]: Form 1
XRPD 4 days [4]: Form 3

Structure (SMILES): CCOC(=O)[C@@H]1CC2(CCN(c3cc(O[C@H](c4ccc(Cl)cc4-c4ccccc4)C(F)(F)F)nc(N)n3)CC2)CN1 [ES928-60-2]
XRPD 16 hours [4]: Mixture 1
XRPD 4 days [4]: Form 3

Structure (SMILES): CCOC(=O)[C@@H]1CC2(CCN(c3cc(O[C@H](c4ccc(Cl)cc4-c4ccccc4)C(F)(F)F)nc(N)n3)CC2)CN1 [ES928-60-3]
XRPD 16 hours [4]: Form 3
XRPD 4 days [4]: Form 3

Structure (SMILES): CCOC(=O)[C@@H]1CC2(CCN(c3cc(O[C@H](c4ccc(Cl)cc4-c4ccccc4)C(F)(F)F)nc(N)n3)CC2)CN1 [ES928-60-4]
XRPD 16 hours [4]: Form 3
XRPD 4 days [4]: Form 3

Structure (SMILES): CCOC(=O)[C@@H]1CC2(CCN(c3cc(O[C@H](c4ccc(Cl)cc4-c4ccccc4)C(F)(F)F)nc(N)n3)CC2)CN1 [ES928-60-6]
XRPD 16 hours [4]: Form 3
XRPD 4 days [4]: Form 3

Structure (SMILES): CCOC(=O)[C@@H]1CC2(CCN(c3cc(O[C@H](c4ccc(Cl)cc4-c4ccccc4)C(F)(F)F)nc(N)n3)CC2)CN1 [ES928-60-S]
XRPD 16 hours [4]: Form 3
XRPD 4 days [4]: Form 3

Structure (SMILES): CCOC(=O)[C@@H]1CC2(CCN(c3cc(O[C@H](c4ccc(Cl)cc4-c4ccccc4)C(F)(F)F)nc(N)n3)CC2)CN1 [ES-928-62-1]
solubility thermodynamic ([5]; buffer pH 1.2, pH 1.2, simulated gastric fluid, thermodynamic from solid, Buffer pH 1.2, read-out: Conc. Actual): 49 mg/mL (≈ 83 mM)

Further lines, with some results ahead:

Conc. Actual ([5]; Buffer pH 1.2): 46000 µg/mL
Structure (SMILES): CCOC(=O)[C@@H]1CC2(CCN(c3cc(O[C@H](c4ccc(Cl)cc4-c4ccccc4)C(F)(F)F)nc(N)n3)CC2)CN1 [ES-928-62-4]

Conc. Actual ([5]; Ethanol Abs.): 129000 µg/mL
Structure (SMILES): CCOC(=O)[C@@H]1CC2(CCN(c3cc(O[C@H](c4ccc(Cl)cc4-c4ccccc4)C(F)(F)F)nc(N)n3)CC2)CN1 [EdA-928-63-1]

Conc. Actual ([5]; Ethanol Abs.): 58000 µg/mL
Structure (SMILES): CCOC(=O)[C@@H]1CC2(CCN(c3cc(O[C@H](c4ccc(Cl)cc4-c4ccccc4)C(F)(F)F)nc(N)n3)CC2)CN1 [EdA-928-63-2]

XRPD 16 hours [4]: remained as Form 1
XRPD 4 days [4]: slowly converts to Form 3
solubility ([6]; 2-methyl-tetrahydrofuran, organic solvent or mixture, thermodynamic from solid, 2-methyl-tetrahydrofuran, read-out: Solubility): 97 to 970 mg/mL (≈ 164 to 1640 mM)
solubility ([6]; 2-propanol): 98 to 980 mg/mL
solubility ([6]; I-propanol): 101 to 1010 mg/mL
solubility ([6]; N,N-dimethyl-acetamide, organic solvent or mixture, thermodynamic from solid, N,N-dimethyl-acetamide, read-out: Solubility): 96 to 960 mg/mL (≈ 163 to 1630 mM)
solubility ([6]; acetic acid): 32 to 95 mg/mL
solubility ([6]; acetone, organic solvent or mixture, thermodynamic from solid, acetone, read-out: Solubility): 96 to 960 mg/mL (≈ 163 to 1630 mM)
solubility ([6]; acetonitrile, organic solvent or mixture, thermodynamic from solid, acetonitrile, read-out: Solubility): 99 to 990 mg/mL (≈ 168 to 1680 mM)
solubility ([6]; dimethyl sulfoxide, organic solvent or mixture, thermodynamic from solid, dimethyl sulfoxide, read-out: Solubility): 101 to 1010 mg/mL (≈ 171 to 1710 mM)
solubility ([6]; ethanol): 96 to 960 mg/mL
solubility ([6]; ethyl acetate, organic solvent or mixture, thermodynamic from solid, ethyl acetate, read-out: Solubility): 101 to 1010 mg/mL (≈ 171 to 1710 mM)
solubility ([6]; formic acid 99%, organic solvent or mixture, thermodynamic from solid, formic acid 99%, read-out: Solubility): 97 to 970 mg/mL (≈ 164 to 1640 mM)
solubility ([6]; isopropyl acetate, organic solvent or mixture, thermodynamic from solid, isopropyl acetate, read-out: Solubility): 103 to 1030 mg/mL (≈ 175 to 1750 mM)
solubility ([6]; methanol, organic solvent or mixture, thermodynamic from solid, methanol, read-out: Solubility): 99 to 990 mg/mL (≈ 168 to 1680 mM)
solubility ([6]; methyl isobutyl, organic solvent or mixture, thermodynamic from solid, methyl isobutyl, read-out: Solubility): 99 to 990 mg/mL (≈ 168 to 1680 mM)
solubility ([6]; methyl tert-butyl ether, organic solvent or mixture, thermodynamic from solid, methyl tert-butyl ether, read-out: Solubility): 102 to 1020 mg/mL (≈ 173 to 1730 mM)
solubility ([6]; n-heptane, organic solvent or mixture, thermodynamic from solid, n-heptane, read-out: Solubility): < 10.1 mg/mL
solubility ([6]; tetrahydrofuran, organic solvent or mixture, thermodynamic from solid, tetrahydrofuran, read-out: Solubility): 97 to 970 mg/mL (≈ 164 to 1640 mM)
solubility ([6]; toluene, organic solvent or mixture, thermodynamic from solid, toluene, read-out: Solubility): 98 to 980 mg/mL (≈ 166 to 1660 mM)
solubility ([6]; water, thermodynamic from solid, water, read-out: Solubility): < 10 mg/mL
Structure (SMILES): CCOC(=O)[C@@H]1CC2(CCN(c3cc(O[C@H](c4ccc(Cl)cc4-c4ccccc4)C(F)(F)F)nc(N)n3)CC2)CN1 [Form 1, (S)-ethyl 8-(2-amino-6-((R)-1-(5-chloro-[1,1′-biphenyl]-2-yl)-2,2,2-trifluoroethoxy)pyrimidin-4-yl)-2,8-diazaspiro[4.5]decane-3-carboxylate]

solubility ([6]; 2-methyl-tetrahydrofuran): 106 to 1060 mg/mL
solubility ([6]; 2-propanol): <10.1 mg/mL
solubility ([6]; I-propanol): 35 to 104 mg/mL
solubility ([6]; N,N-dimethyl-acetamide): 108 to 1080 mg/mL
solubility ([6]; acetic acid): 104 to 1040 mg/mL
solubility ([6]; acetone): 108 to 1080 mg/mL
solubility ([6]; acetonitrile): 99 to 990 mg/mL
solubility ([6]; dimethyl sulfoxide): 109 to 1090 mg/mL
solubility ([6]; ethanol): 33 to 100 mg/mL
solubility ([6]; ethyl acetate): 95 to 950 mg/mL
solubility ([6]; formic acid 99%): 96 to 960 mg/mL
solubility ([6]; isopropyl acetate): 94 to 940 mg/mL
solubility ([6]; methanol): 102 to 1020 mg/mL
solubility ([6]; methyl isobutyl): 100 to 1000 mg/mL
solubility ([6]; methyl tert-butyl ether): 106 to 1060 mg/mL
solubility ([6]; n-heptane): <9.9 mg/mL
solubility ([6]; tetrahydrofuran): 99 to 990 mg/mL
solubility ([6]; toluene): 105 to 1050 mg/mL
solubility ([6]; water): <10.0 mg/mL
solubility ([8]; MTBE/n-heptane 1/0, 45 °C): > 500 mg/mL
solubility ([8]; MTBE/n-heptane 1/1, 10 °C): 27.2 mg/mL (≈ 46.1 mM)
solubility ([8]; MTBE/n-heptane 1/1, 45 °C): 89.4 mg/mL (≈ 152 mM)
solubility ([8]; MTBE/n-heptane 1/2, 10 °C): 17.5 mg/mL (≈ 29.7 mM)
solubility ([8]; MTBE/n-heptane 1/4, 10 °C): 6.2 mg/mL (≈ 10.5 mM)
solubility ([8]; MTBE/n-heptane 1/5, 45 °C): 4.2 mg/mL (≈ 7.12 mM)
dissolution of remaining slurry in time ([5]; ethanol): dissolved completely
Structure (SMILES): CCOC(=O)[C@@H]1CC2(CCN(c3cc(O[C@H](c4ccc(Cl)cc4-c4ccccc4)C(F)(F)F)nc(N)n3)CC2)CN1 [Form 3, (S)-ethyl 8-(2-amino-6-((R)-1-(5-chloro-[1,1′-biphenyl]-2-yl)-2,2,2-trifluoroethoxy)pyrimidin-4-yl)-2,8-diazaspiro[4.5]decane-3-carboxylate]
thermodynamic stability compared to crystalline Form 1 [7]: substantially greater thermodynamic stability
